Consider 16 compounds from article PMC3047706 (Chemmedchem, 2010).

Type in all cases: biochemical
In experiment [1] the target is T1, T. cruzi TryR (Trypanosoma cruzi, UniProt P28593). As to the kind of experiment: DTNB-coupled TryR assay, global fit of mode of inhibition.
Experiment [2] concerns the target T1, T. cruzi TryR. In words: DTNB-coupled TryR microplate assay, […] nm.
In a further experiment the target is T2, human GR (Homo sapiens, UniProt P00390).
T2 sequence (P00390 44-522): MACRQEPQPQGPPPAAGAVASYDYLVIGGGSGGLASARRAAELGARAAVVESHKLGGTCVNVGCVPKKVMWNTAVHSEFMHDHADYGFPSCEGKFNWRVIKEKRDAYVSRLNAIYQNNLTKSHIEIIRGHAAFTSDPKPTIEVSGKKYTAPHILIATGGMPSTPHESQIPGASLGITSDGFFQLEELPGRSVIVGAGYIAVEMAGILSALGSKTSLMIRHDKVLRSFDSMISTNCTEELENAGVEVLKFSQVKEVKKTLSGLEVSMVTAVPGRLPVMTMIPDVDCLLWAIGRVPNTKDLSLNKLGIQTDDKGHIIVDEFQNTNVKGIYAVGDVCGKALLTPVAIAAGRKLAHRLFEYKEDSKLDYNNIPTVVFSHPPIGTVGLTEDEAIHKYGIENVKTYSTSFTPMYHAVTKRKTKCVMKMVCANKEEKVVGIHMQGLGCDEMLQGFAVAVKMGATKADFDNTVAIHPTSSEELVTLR
In words: DTNB-coupled GR microplate assay, single concentration in duplicate. The note with it: read-out: % inhibition at 25 μM.

Where a name gives a salt, the structure may show the parent alone. A value given as a limit tells only on which side of the number the result lay.

T1 sequence (P28593 whole entry): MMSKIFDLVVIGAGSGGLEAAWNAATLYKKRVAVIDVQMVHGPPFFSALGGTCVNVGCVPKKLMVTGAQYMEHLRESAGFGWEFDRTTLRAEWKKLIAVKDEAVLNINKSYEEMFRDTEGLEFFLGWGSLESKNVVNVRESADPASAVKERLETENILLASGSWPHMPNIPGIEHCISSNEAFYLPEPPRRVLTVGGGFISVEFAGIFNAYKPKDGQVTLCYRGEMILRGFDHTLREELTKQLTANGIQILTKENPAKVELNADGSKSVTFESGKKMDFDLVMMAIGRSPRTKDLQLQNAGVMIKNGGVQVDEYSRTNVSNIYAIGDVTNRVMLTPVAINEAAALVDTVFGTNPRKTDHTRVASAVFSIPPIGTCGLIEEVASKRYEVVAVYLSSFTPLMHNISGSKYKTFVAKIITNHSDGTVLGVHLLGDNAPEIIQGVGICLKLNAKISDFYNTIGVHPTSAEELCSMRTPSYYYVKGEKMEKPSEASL

One may read the Ki as the equilibrium dissociation constant of an inhibitor or competing ligand from its target. By IC50 is commonly meant the concentration needed to halve the response being measured. The low end stands for greater potency in that assay, the high end for weaker potency in that assay. In the case of `CC(C)CCN[C@@H]1C[C@@H](c2ccc(Cl)c(Cl)c2)c2ccccc21` (relative stereo) [8ii, Trans-[3-(3,4-dichlorophenyl)indan-1-yl]-(3-methylbutyl)amine hydrochloride], the Ki on T. cruzi TryR [1] was 3.5 ± 0.4 µM. At T. cruzi TryR [2], this compound yielded an IC50 of 4.05 ± 0.39 µM.

For the compound `Clc1ccc(CN[C@@H]2C[C@@H](c3ccc(Cl)c(Cl)c3)c3ccccc32)cc1Cl` (relative stereo) [8ix, Trans-[3-(3,4-dichlorophenyl)indan-1-yl]-(3,4-dichlorobenzyl)amine], it took 45.9 ± 4.2 µM to reach half-maximal inhibition against T. cruzi TryR [2] (IC50).

With `Clc1ccc([C@@H]2C[C@@H](N3CCOCC3)c3ccccc32)cc1Cl` (relative stereo) [8vi, Trans-4-[3-(3,4-dichlorophenyl)indan-1-yl]morpholine], the midpoint of inhibition against T. cruzi TryR [2], the IC50, lay at 173 ± 56 µM. This IC50 lies about 3.8-fold higher than the previous one.

`Cc1ccc(CN[C@@H]2C[C@@H](c3ccc(Cl)c(Cl)c3)c3ccccc32)cc1` (relative stereo) [8x, Trans-[3-(3,4-dichlorophenyl)indan-1-yl]-(4-methylbenzyl)amine] returned an IC50 against T. cruzi TryR [2] of 13 ± 1.6 µM.

For `COc1ccc(CN[C@@H]2C[C@@H](c3ccc(Cl)c(Cl)c3)c3ccccc32)cc1` (relative stereo) [8xi, Trans-[3-(3,4-dichlorophenyl)indan-1-yl]-(4-methoxybenzyl)amine], the IC50 on T. cruzi TryR [2] worked out at 4.14 ± 0.41 µM.

`CN(C)c1ccc(CN[C@@H]2C[C@@H](c3ccc(Cl)c(Cl)c3)c3ccccc32)cc1` (relative stereo) [8xii, Trans-[3-(3,4-dichlorophenyl)indan-1-yl]-(4-dimethylaminobenzyl)amine] gave an IC50 against T. cruzi TryR [2] of 7.38 ± 1.21 µM.

On T. cruzi TryR [2], `CC(=O)N[C@@H]1C[C@@H](c2ccc(Cl)c(Cl)c2)c2ccccc21` (relative stereo) [8xiv, Trans-N-[3-(3,4-dichlorophenyl)indan-1-yl]acetamide] returned an IC50 greater than 200 µM.

`COc1ccc2c(c1)[C@H](NCCC(C)C)C[C@H]2c1ccc(C)cc1` (relative stereo) [8xix, Trans-[3-(4-methylphenyl)-6-methoxyindan-1-yl]-(3-methylbutyl)amine] came in with an IC50 on T. cruzi TryR [2] of 32.9 ± 4.3 µM.

As to `Cc1ccc(S(=O)(=O)N[C@@H]2C[C@@H](c3ccc(Cl)c(Cl)c3)c3ccccc32)cc1` (relative stereo) [8xv, Trans-N-[3-(3,4-dichlorophenyl)indan-1-yl]-4-methylbenzenesulfonamide], the IC50 on T. cruzi TryR [2] was greater than 200 µM.

At T. cruzi TryR [2], `COc1ccc2c(c1)[C@H](NCCC(C)C)C[C@H]2c1ccc(Cl)c(Cl)c1` (relative stereo) [8xvi, Trans-[3-(3,4-dichlorophenyl)-6-methoxyindan-1-yl]-(3-methylbutyl)amine] returned a concentration for half-maximal inhibition (IC50) of 2.23 ± 0.66 µM.

On T. cruzi TryR [2], `COc1ccc2c(c1)[C@H](NCCC(C)C)C[C@H]2c1ccc(Br)c(Br)c1` (relative stereo) [8xvii, Trans-[3-(3,4-dibromophenyl)-6-methoxyindan-1-yl]-(3-methylbutyl)amine] showed an IC50 of 3.15 ± 0.23 µM.

In turn, `COc1ccc2c(c1)[C@H](NCCC(C)C)C[C@H]2c1ccc(Cl)cc1` (relative stereo) [8xviii, Trans-[3-(4-chlorophenyl)-6-methoxyindan-1-yl]-(3-methylbutyl)amine] had an IC50 against T. cruzi TryR [2] of 15.8 ± 1.6 µM.

Compound `COc1ccc2c(c1)[C@@H](NCc1ccccc1)C[C@@H]2c1ccc(Cl)c(Cl)c1` (relative stereo) [8xxi, Trans-benzyl-[3-(3,4-dichlorophenyl)-6-methoxyindan-1-yl]amine] showed an IC50 against T. cruzi TryR [2] of 3.07 ± 0.45 µM.

On T. cruzi TryR [2], `Clc1ccc(C2CC(NCc3ccccc3)c3ccccc32)cc1Cl` (centres unmarked) [8vii] displayed an IC50 of 8.04 ± 0.91 µM. Against the preceding compound, the IC50 is about 2.6-fold higher.

`COc1cccc(C2CC(NCCC(C)C)c3cc(OC)ccc32)c1` (centres unmarked) [8xx] displayed an IC50 against T. cruzi TryR [2] of 125 ± 17 µM.

Broadly, the inhibition is the relative decrease from the control value, in per cent. As to `CN[C@@H]1C[C@@H](c2ccc(Cl)c(Cl)c2)c2ccccc21` [compound 3, indatraline], the inhibition at 25 µM at human GR is less than 12%.
